Experimental data published in patent US10745382B2 (BRISTOL-MYERS SQUIBB COMPANY, priority 2015, dated 2020).
Like-named read-outs stand apart in the source and are kept apart here.

Biological target: T1, PD-1/PD-L1 (Homo sapiens, UniProt Q9NZQ7)
T1 construct: made in house; host or cells: HEK293T
Test: PD-1/PD-L1 Homogenous Time-Resolved Fluorescence (HTRF) binding assay
Details: PD-L1-His 10 nM, PD-1-Ig 20 nM, read-out: Range or IC50
How it was run: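 Binding was measured by HTRF in dPBS with 0.1% BSA and 0.05% Tween-20. Detection used europium cryptate anti-Ig (1 nM final) and APC anti-His (20 nM final) added over the binding reaction.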

T1 sequence (Q9NZQ7 with tags, fused parts or gaps): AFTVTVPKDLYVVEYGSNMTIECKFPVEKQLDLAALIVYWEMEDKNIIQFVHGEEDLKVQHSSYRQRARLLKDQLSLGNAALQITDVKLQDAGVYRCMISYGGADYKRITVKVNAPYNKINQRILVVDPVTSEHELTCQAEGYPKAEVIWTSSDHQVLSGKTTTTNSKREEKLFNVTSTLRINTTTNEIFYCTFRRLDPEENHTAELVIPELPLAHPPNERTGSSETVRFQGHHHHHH

Row | SMILES | IC50 (value given as range class) | IC50 (numeric IC50)
1 | Cc1c(COc2cc(OCc3cncc(C#N)c3)c(CN3CCCC[C@H]3C(=O)O)cc2Cl)cccc1-c1cccc(O[C@@H](C)CCN2CC[C@@H](O)C2)c1Cl [Example 1522, (S)-1-(5-chloro-4-((2′-chloro-3′-(((S)-4-((R)-3-hydroxypyrrolidin-1-yl)butan-2-yl)oxy)-2-methyl-[1,1′-biphenyl]-3-yl)methoxy)-2-((5-cyanopyridin-3-yl)methoxy)benzyl)piperidine-2-carboxylic acid] | 0.21 to 10 nM | –
2 | Cc1c(COc2cc(OCc3cncc(C#N)c3)c(CN3CCCC[C@H]3C(=O)O)cc2Cl)cccc1-c1cccc(O[C@H](C)CCN2CC[C@@H](O)C2)c1Cl [Example 1523] | 0.21 to 10 nM | –
3 | Cc1c(COc2cc(OCc3cncc(C#N)c3)c(CN[C@@](C)(CO)C(=O)O)cc2Cl)cccc1-c1cccc(O[C@H](C)CCN2CC[C@@H](O)C2)c1Cl [Example 1524] | 0.21 to 10 nM | –
4 | Cc1c(COc2cc(OCc3cncc(C#N)c3)c(CN[C@@](C)(CO)C(=O)O)cc2Cl)cccc1-c1cccc(O[C@H](C)CCN2CC[C@@H](O)C2)c1C [Example 1525, (S)-2-((5-chloro-2-((5-cyanopyridin-3-yl)methoxy)-4-((3′-(((R)-4-((R)-3-hydroxypyrrolidin-1-yl)butan-2-yl)oxy)-2,2′-dimethyl-[1,1′-biphenyl]-3-yl)methoxy)benzyl)amino)-3-hydroxy-2-methylpropanoic acid] | 0.21 to 10 nM | –
5 | Cc1c(COc2cc(OCc3cncc(C#N)c3)c(CN3CCCC[C@H]3C(=O)O)cc2Cl)cccc1-c1cccc(O[C@H](C)CCN2CC[C@@H](O)C2)c1C [Example 1526, (S)-1-(5-chloro-2-((5-cyanopyridin-3-yl)methoxy)-4-((3′-(((R)-4-((R)-3-hydroxypyrrolidin-1-yl)butan-2-yl)oxy)-2,2′-dimethyl-[1,1′-biphenyl]-3-yl)methoxy)benzyl)piperidine-2-carboxylic acid] | 0.21 to 10 nM | –

Next, values leading:

Row | IC50 (value given as range class) | IC50 (numeric IC50) | SMILES
6 | 0.21 to 10 nM | – | Cc1ccc(OCCCN2CC[C@@H](O)C2)cc1-c1cccc(COc2cc(OCc3cncc(C#N)c3)c(CN3CCCC[C@H]3C(=O)O)cc2Cl)c1C [Example 1528, (S)-1-(5-chloro-2-((5-cyanopyridin-3-yl)methoxy)-4-((5′-(3-((R)-3-hydroxypyrrolidin-1-yl)propoxy)-2,2′-dimethyl-[1,1′-biphenyl]-3-yl)methoxy)benzyl)piperidine-2-carboxylic acid]
7 | – | 2 nM | Cc1c(COc2cc(OCCCN3CC[C@@H](O)C3)c(CN3CCCC[C@H]3C(=O)O)cc2Cl)cccc1-c1cccc(OCCCN2CC[C@@H](O)C2)c1C [Example 1529, (S)-1-(5-chloro-2-(3-((R)-3-hydroxypyrrolidin-1-yl)propoxy)-4-((3′-(3-((R)-3-hydroxypyrrolidin-1-yl)propoxy)-2,2′-dimethyl-[1,1′-biphenyl]-3-yl)methoxy)benzyl)piperidine-2-carboxylic Acid]
8 | 0.21 to 10 nM | – | Cc1c(COc2cc(OCCCN3CC[C@@H](O)C3)c(CN[C@@H](CO)C(=O)O)cc2Cl)cccc1-c1cccc(OCCCN2CC[C@@H](O)C2)c1C [Example 1530, (5-chloro-2-(3-((R)-3-hydroxypyrrolidin-1-yl)propoxy)-4-((3′-(3-((R)-3-hydroxypyrrolidin-1-yl)propoxy)-2,2′-dimethyl-[1,1′-biphenyl]-3-yl)methoxy)benzyl)-L-serine]
9 | 0.21 to 10 nM | – | Cc1c(COc2cc(OCCCN3CC[C@@H](O)C3)c(CN[C@](C)(CO)C(=O)O)cc2Cl)cccc1-c1cccc(OCCCN2CC[C@@H](O)C2)c1C [Example 1531, (R)-2-((5-chloro-2-(3-((R)-3-hydroxypyrrolidin-1-yl)propoxy)-4-((3′-(3-((R)-3-hydroxypyrrolidin-1-yl)propoxy)-2,2′-dimethyl-[1,1′-biphenyl]-3-yl)methoxy)benzyl)amino)-3-hydroxy-2-methylpropanoic Acid]
